Results from US20230012368A1 (Hoffmann-La Roche Inc., priority 2018, published 2023).
Counter-ions that a name gives are not always drawn. Like-named read-outs stand apart in the source and are kept apart here.

Tested on: Acinetobacter baumannii ATCC 17978
Assay: Antimicrobial susceptibility testing: 90% growth inhibitory concentration (IC90) determination
Assay type: cell-based
Conditions: 90% growth inhibitory concentration, Acinetobacter baumannii ATCC17978, Iso-Sensitest broth, OD 600 nm over 16h, read-out: ATCC17978 IC90
Summary of the method: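 Compounds serially twofold diluted (e.g. 50 to 0.097 μM final) in Iso-Sensitest broth, inoculated at ~5×10^(5) CFU/ml, incubated at 35±2° C. OD600 read every 20 minutes over 16h. IC90 taken as concentration inhibiting 90% of growth during logarithmic phase.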

[1] = Acinetobacter baumannii, ATCC17978, 16 h

IC90 [1] | SMILES | IC90
190 nM | CCc1cc(Nc2nccn3c(-c4ccc(OC(F)F)c(F)c4F)cnc23)ccc1C(=O)NCCCN1CCCC1 [Example 95, 4-((3-(4-(difluoromethoxy)-2,3-difluorophenyl)imidazo [1,2-a]pyrazin-8-yl)amino)-2-ethyl-N-(3-(pyrrolidin-1-yl)propyl)benzamide] | –
150 nM | CCc1cc(Nc2nccn3c(-c4ccc(OC(F)F)c(F)c4F)cnc23)ccc1C(=O)NCCC(=O)NCCN(C)C [Example 325, 4-[[3-[4-(difluoromethoxy)-2,3-difluorophenyl]imidazo[1,2-a]pyrazin-8-yl]amino]-N-[3-[2-(dimethylamino)ethylamino]-3-oxopropyl]-2-ethylbenzamide] | –
560 nM | COc1ccc(-c2cnc3c(Nc4ccc(C(=O)N(C)CCCC(=O)N5CCNCC5)c(C)c4)nccn23)cc1F [Example 207, 4-[[3-(3-fluoro-4-methoxyphenyl)imidazo[1,2-a]pyrazin-8-yl]amino]-N,2-dimethyl-N-(4-oxo-4-piperazin-1-ylbutyl)benzamide;hydrochlo-ride] | –
140 nM | CCc1cc(Nc2nccn3c(-c4ccc(OC)c(F)c4F)cnc23)ccc1C(=O)NCCNC(=O)[C@@H]1C[C@@H](O)CN1 [Example 370, (2S,4R)-N-[2-[[4-[[3-(2,3-difluoro-4-methoxyphenyl)imidazo[1,2-a]pyrazin-8-yl]amino]-2-ethylbenzoyl]amino]ethyl]-4-hydroxypyrrolidine-2-carboxamide] | –
66 nM | CCc1cc(Nc2nccn3c(-c4ccc(OC)c(F)c4F)cnc23)ccc1C(=O)NCC1CCNCC1 [Example 543, 4-((3-(2,3-difluoro-4-methoxyphenyl)imidazo[1,2-a]pyrazin-8-yl)amino)-2-ethyl-N-(piperidin-4-ylmethyl)benzamide formate] | –
150 nM | CN(CCC1CCNCC1)C(=O)c1ccc(Nc2nccn3c(-c4ccc(OC(F)F)cc4)cnc23)cc1Cl [Example 23, 2-chloro-4-((3-(4-(difluoromethoxy)phenyl)imidazo[1,2-a]pyrazin-8-yl)amino)-N-methyl-N-(2-(piperidin-4-yl)ethyl)benzamide hydrochloride] | –
– | CCc1cc(Nc2nccn3c(-c4ccc(OC(F)F)c(F)c4F)cnc23)ccc1C(=O)NC(CC)CCN (centres unmarked) [Example 317, N-(1-aminopentan-3-yl)-4-[[3-[4-(difluoromethoxy)-2,3-difluorophenyl]imidazo[1,2-a]pyrazin-8-yl]amino]-2-ethylbenzamide; hydrochloride] | 2500 nM
37 nM | CCc1cc(Nc2nccn3c(-c4ccc(OC)c(F)c4F)cnc23)ccc1C(=O)NCCCCCCN [Example 494, N-(6-aminohexyl)-4-((3-(2,3-difluoro-4-methoxyphenyl)imidazo[1,2-a]pyrazin-8-yl)amino)-2-ethylbenzamide hydrochloride] | –
500 nM | CCc1cc(Nc2nccn3c(-c4ccc(OC)c(F)c4F)cnc23)ccc1C(=O)NCCNC(=O)CCCNCCCN [Example 564, N-(2-(4-((3-aminopropyl)amino)butanami-do)ethyl)-4-((3-(2,3-difluoro-4-methoxyphenyl)imidazo[1,2-a]pyrazin-8-yl)amino)-2-ethylbenzamide trihydrochloride] | –
310 nM | CCc1cc(Nc2nccn3c(-c4ccc(OC)c(F)c4F)cnc23)ccc1C(=O)NCC1CCN(CCC2CCCN2)CC1 (centres unmarked) [Example 556, 4-[[3-(2,3-difluoro-4-methoxy-phenyl)imidazo[1,2-a]pyrazin-8-yl]amino]-2-ethyl-N-[[1-(2-pyrrolidin-2-ylethyl)-4-piperidyl]methyl]benzamide] | –
390 nM | CCc1cc(Nc2nccn3c(-c4ccc(OC)c(F)c4F)cnc23)ccc1C(=O)NCC(O)CNC(=O)[C@@H](N)CCN (mixture of isomers) [Example 414, rac-N-(3-((R)-2,4-diaminobutanamido)-2-hydroxypropyl)-4-((3-(2,3-difluoro-4-methoxyphenyl)imidazo[1,2-a]pyrazin-8-yl)amino)-2-ethylbenzamide dihydrochloride] | –
